Experimental data reported in article PMC12030706, “Novel ^177Lu-Labeled [Thz^14]Bombesin(6–14) Derivatives with Low Pancreas Accumulation for Targeting Gastrin-Releasing Peptide Receptor-Expressing Cancer” (Pharmaceuticals, 2025).
Numbered stars: 1 amine (or outer) side, 2 acyl side, 3 side chain; on linkers, the order of the positions; unused ones are H or OH. Square brackets hold non-standard residues; d marks the D form. Peptide text beside a SMILES is read from it. * marks the point of attachment. DOTA = O=C(O)CN1CCN(CC(=O)O)CCN(CC(=O)*)CCN(CC(=O)O)CC1; NMeH = CN[C@@H](Cc1c[nH]cn1)C(=O)O; X1 = O=C(CN1CCC(N[*:1])CC1)[*:2]; Tle = CC(C)(C)[C@H](N)C(=O)O; Thz = O=C(O)[C@@H]1CSCN1

Legend:
[1] = Ex vivo biodistribution in PC-3 tumor-bearing mice; conditions: mouse; for tissue uptake at 4 h: 4 h post-injection; for tissue uptake at 24 h: 24 h post-injection; for tissue uptake at 72 h: 72 h post-injection; for tissue uptake at 120 h: 120 h post-injection
Procedure: (§1) SPECT/CT imaging experiments were performed using an MILabs (Houten, The Netherlands) U-SPECT-II/CT scanner with a custom-made ultra-high-sensitivity big mouse collimator (2 mm pinhole size) following previously reported procedures. […] Male NOD.Cg-Rag1^tm1Mom Il2rg^tm1Wjl/SzJ (NRG) mice were used in these experiments because of their immunodeficient characteristics and excellent radiation tolerance. Mice were anaesthetized and subcutaneously implanted with 5 × 10^6 PC-3 prostate cancer cells (100 µL; 1:1 PBS/Matrigel) behind the left shoulder. SPECT/CT imaging and biodistribution studies were performed once the tumors reached a diameter of 5–8 mm, typically after approximately 4 weeks of growth.
(§2) For ex vivo biodistribution studies, the mice were injected with ~2–6 MBq of the radioligand. […] Blocking study was conducted at 1 h post-injection via co-injection of the radioligand with 100 μg of [D-Phe^6,Leu-NHEt^13,des-Met^14]Bombesin(6–14). Organs/tissues of interested were collected, weighed, and measured using an automatic gamma counter.

[2] = tested on: PC-3 tumor-bearing mice; test: Ex vivo biodistribution in PC-3 tumor-bearing mice
Procedure: as §1, §2

[3] = tested on: PC-3 tumor-bearing NRG mouse; test: Longitudinal SPECT/CT imaging in PC-3 tumor-bearing mice; format: in vivo, mice (NRG); conditions: SPECT/CT images
Procedure: The PC-3 tumor-bearing mice were sedated (2.5% isoflurane in O2) and injected with ^177Lu-labeled ligands (15–32 MBq) through a lateral caudal tail vein. […] At each time point, a 5 min CT scan was obtained using 615 μA and 60 kV parameters for localization and attenuation, followed by 2 × 30 min static SPECT scans acquired in list mode with an energy window centered around 208 keV. The MILabs U-SPECT II reconstruction software (version 8.00) was used to reconstruct data, and the images were decay corrected to the time of injection with PMOD v 3.402 (PMOD Technologies GmbH, Fallanden, Switzerland).

[4] = large intestine, Uptake in large intestine
[5] = small intestine, Uptake in small intestine
[6] = 1 h blocked (co-injected with 100 µg [D-Phe6,Leu-NHEt13,des-Met14]Bombesin(6-14))
[7] = 1 h post-injection, 100 µg [D-Phe6,Leu-NHEt13,des-Met14]Bombesin(6–14)

CC(C)C[C@H](NC(=O)[C@H](Cc1cnc[nH]1)N(C)C(=O)CNC(=O)[C@@H](NC(=O)[C@H](C)NC(=O)[C@H](Cc1c[nH]c2ccccc12)NC(=O)[C@H](Cc1c[nH]cn1)NC(=O)[C@@H](Cc1ccccc1)NC(=O)CN1CCC(NC(=O)CN2CCN(CC(=O)O)CCN(CC(=O)O)CCN(CC(=O)O)CC2)CC1)C(C)(C)C)C(=O)N1CSC[C@H]1C(N)=O [[^177Lu]Lu-LW01142, metal not drawn] ({DOTA}-[X1][dF]HWA[Tle]G[NMeH]L[Thz]-NH2)
tissue uptake at 1 h ([1]; large intestine, 100 ug, Uptake in large intestine, 1 h blocked (co-injected with 100 µg [D-Phe6,Leu-NHEt13,des-Met14]Bombesin(6-14))): 0.31 ± 0.08 %ID/g | tissue uptake at 4 h [1, 4]: 0.81 ± 0.21 %ID/g | tissue uptake at 24 h [1, 4]: 0.3 ± 0.12 %ID/g | tissue uptake at 72 h [1, 4]: 0.13 ± 0.05 %ID/g | tissue uptake at 120 h [1, 4]: 0.07 ± 0.04 %ID/g | tissue uptake at 1 h ([1]; liver, 100 ug, Uptake in liver, 1 h blocked (co-injected with 100 µg [D-Phe6,Leu-NHEt13,des-Met14]Bombesin(6-14))): 0.57 ± 0.15 %ID/g | tissue uptake at 4 h ([1]; liver, Uptake in liver): 0.33 ± 0.05 %ID/g | tissue uptake at 24 h ([1]; liver, Uptake in liver): 0.28 ± 0.07 %ID/g | tissue uptake at 120 h ([1]; liver, Uptake in liver): 0.08 ± 0.02 %ID/g | tissue uptake at 1 h ([1]; lungs, Uptake in lungs, 1 h post-injection): 1.53 ± 0.19 %ID/g | tissue uptake at 4 h ([1]; lungs, Uptake in lungs): 0.57 ± 0.21 %ID/g | tissue uptake at 24 h ([1]; lungs, Uptake in lungs): 0.16 ± 0.08 %ID/g | tissue uptake at 72 h ([1]; lungs, Uptake in lungs): 0.03 ± 0.01 %ID/g | tissue uptake at 120 h ([1]; lungs, Uptake in lungs): 0.03 ± 0.01 %ID/g | tissue uptake at 1 h ([1]; muscle, 100 ug, Uptake in muscle, 1 h blocked (co-injected with 100 µg [D-Phe6,Leu-NHEt13,des-Met14]Bombesin(6-14))): 0.23 ± 0.11 %ID/g | tissue uptake at 1 h ([1]; muscle, Uptake in muscle, 1 h post-injection): 0.22 ± 0.04 %ID/g | tissue uptake at 4 h ([1]; muscle, Uptake in muscle): 0.03 ± 0.01 %ID/g | tissue uptake at 24 h ([1]; muscle, Uptake in muscle): 0.01 %ID/g | tissue uptake at 72 h ([1]; muscle, Uptake in muscle): 0.01 %ID/g | tissue uptake at 1 h ([1]; pancreas, 100 ug, Uptake in pancreas, 1 h blocked (co-injected with 100 µg [D-Phe6,Leu-NHEt13,des-Met14]Bombesin(6-14))): 1.88 ± 0.42 %ID/g | tissue uptake at 4 h ([1]; pancreas, Uptake in pancreas): 1.57 ± 0.28 %ID/g | tissue uptake at 24 h ([1]; pancreas, Uptake in pancreas): ~1 %ID/g | tissue uptake at 72 h ([1]; pancreas, Uptake in pancreas): 0.68 ± 0.1 %ID/g | tissue uptake at 120 h ([1]; pancreas, Uptake in pancreas): 0.48 ± 0.08 %ID/g | tissue uptake at 1 h ([1]; small intestine, 100 ug, Uptake in small intestine, 1 h blocked (co-injected with 100 µg [D-Phe6,Leu-NHEt13,des-Met14]Bombesin(6-14))): 0.54 ± 0.1 %ID/g | tissue uptake at 1 h ([1]; small intestine, Uptake in small intestine, 1 h post-injection): 1.32 ± 0.42 %ID/g | tissue uptake at 4 h [1, 5]: 0.29 ± 0.08 %ID/g | tissue uptake at 24 h [1, 5]: 0.14 ± 0.03 %ID/g | tissue uptake at 72 h [1, 5]: 0.05 ± 0.01 %ID/g | tissue uptake at 120 h [1, 5]: 0.02 ± 0.02 %ID/g | tissue uptake at 1 h ([1]; spleen, 100 ug, Uptake in spleen, 1 h blocked (co-injected with 100 µg [D-Phe6,Leu-NHEt13,des-Met14]Bombesin(6-14))): 0.4 ± 0.04 %ID/g | tissue uptake at 24 h ([1]; spleen, Uptake in spleen): 0.14 ± 0.05 %ID/g | tissue uptake at 72 h ([1]; spleen, Uptake in spleen): 0.09 ± 0.02 %ID/g | tissue uptake at 120 h ([1]; spleen, Uptake in spleen): 0.09 ± 0.02 %ID/g | tissue uptake at 1 h ([1]; stomach, Uptake in stomach, 1 h post-injection): 0.6 ± 0.24 %ID/g | tissue uptake at 4 h ([1]; stomach, Uptake in stomach): 0.11 ± 0.04 %ID/g | tissue uptake at 24 h ([1]; stomach, Uptake in stomach): 0.16 ± 0.07 %ID/g | tissue uptake at 120 h ([1]; stomach, Uptake in stomach): 0.02 ± 0.01 %ID/g | tissue uptake at 1 h ([1]; testes, 100 ug, Uptake in testes, 1 h blocked (co-injected with 100 µg [D-Phe6,Leu-NHEt13,des-Met14]Bombesin(6-14))): 0.48 ± 0.16 %ID/g | tissue uptake at 4 h ([1]; testes, Uptake in testes): 0.05 ± 0.01 %ID/g | tissue uptake at 24 h ([1]; testes, Uptake in testes): 0.03 ± 0.01 %ID/g | tissue uptake at 72 h ([1]; testes, Uptake in testes): 0.02 %ID/g | tissue uptake at 120 h ([1]; testes, Uptake in testes): 0.01 %ID/g | Uptake in lungs [2, 6]: 1.06 ± 0.27 %ID/g | Uptake in stomach [2, 6]: 0.17 ± 0.06 %ID/g | Uptake in bone ([2]; 1 h post-injection): 0.15 ± 0.03 %ID/g | Uptake in kidneys ([2]; 1 h post-injection): 6.86 ± 0.81 %ID/g | Uptake in large intestine ([2]; 1 h post-injection): 0.76 ± 0.16 %ID/g | Uptake in liver ([2]; 1 h post-injection): 0.71 ± 0.08 %ID/g | Uptake in pancreas ([2]; 1 h post-injection): 4.45 ± 0.83 %ID/g | Uptake in spleen ([2]; 1 h post-injection): 0.47 ± 0.07 %ID/g | Uptake in testes ([2]; 1 h post-injection): 0.32 ± 0.18 %ID/g | reduction of average pancreas uptake by co-injection of blocker [2, 7]: 58% | reduction of average tumor uptake by co-injection of blocker [2, 7]: 62% | Uptake in heart ([2]; 4 h post-injection): 0.06 ± 0.01 %ID/g | Uptake in kidneys ([2]; 4 h post-injection): 5.51 ± 0.54 %ID/g | Uptake in spleen ([2]; 4 h post-injection): 0.17 ± 0.04 %ID/g | Uptake in pancreas ([2]; 24 h post-injection): 1.06 ± 0.26 %ID/g | Uptake in liver ([2]; 72 h post-injection): 0.12 ± 0.03 %ID/g | Uptake in stomach ([2]; 72 h post-injection): 0.10 ± 0.05 %ID/g | Uptake in adrenal glands ([2]; 120 h post-injection): 0.17 ± 0.09 %ID/g | uptake in PC-3 tumor xenografts cleared within 24 h ([2]; relative to 1 h uptake): 47% | excretion pathway [3]: excreted mainly via the renal pathway
